# From patent US8034833B2, “Phosphorus binder for treatment of renal disease” (Biolink Life Sciences, Inc., priority 2008, dated 2011)
# Where two headings read alike, the source gives them in different places.
# Tests used:
# [1] = intravenous administration, cited from earlier work
# [2] = system: parathyroid hormone (PTH) secretion; conditions: maintenance dialysis patients; cited from earlier work
# [3] = cited from earlier work
# [4] = cited from earlier work; remark: listed apart in the source
# [5] = in many patients; cited from earlier work
# [6] = Solubility in water of cationic phosphate binders (Lange's Handbook); conditions: relative hydrophile by solubility in water
# [7] = pH 6.0; Sheikh et al. (Note 2); cited from earlier work
# [8] = 77 mEq per os; normal subjects; cited from earlier work
# [9] = hemodialysis or peritoneal dialysis patients; cited from earlier work
molecule,measurement,setting,value
"C[N+](C)(C)C[C@H](O)CC(=O)[O-] [L-carnitine, L-(−)-Carnitine]","effect on total, LDL and HDL cholesterol",[1],decrease total cholesterol and LDL cholesterol while significantly increasing HDL cholesterol
same,effect on serum phosphate concentrations,[1]; maintenance hemodialysis patients,reduced the serum phosphate concentrations significantly
[Mg+2].[OH-].[OH-] [Magnesium Hydroxide],suppression of parathyroid hormone (PTH) secretion,[2],Neither the combination of oral calcium carbonate/magnesium hydroxide nor magnesium hydroxide alone was effective
same,serum Pi level,"[3]; average 734 mg elemental Mg/day, three to five weeks, control (no binders) 9.0 mg/dL",8.1 mg/dL
same,mean serum Mg level,"[3]; average 734 mg elemental Mg/day, dialysate Mg 1.2 to 1.8 mg/dl",4.32 mg/dL
same,patients who developed diarrhea,[3]; nine patients treated,Four of nine
same,"serum Mg level, average",[4]; during Mg(OH)2 treatment,4.3 mg/dL
same,serum Pi level,"[4]; human, in vivo",6.1 mg/dL
same,severe hyperkalemia,[5],≤ 8 mEq/L
[O]=[Mg] [Magnesium Oxide],Hydrophile?,[6],No
Calcium Gluconate,"Observed in vitro Pi Binding, %",[7],90%
Magnesium Acetate,Pi absorption,[8],28%
choline magnesium trisalicylate,effect on serum Pi levels,[9],no effect
